Data as given in US10500194B2, “Covalent small molecule DCN1 inhibitors and therapeutic methods using the same” (THE REGENTS OF THE UNIVERSITY OF MICHIGAN, priority 2017, dated 2019).

target: DCN1 (Homo sapiens (Human), UniProt Q96GG9); assay: Competitive FP binding assay; conditions: read-out: Binding affinity to DCN1 (IC50)
Experimental: The Fluorescence Polarization (FP) competitive binding assays were performed to accurately determine the binding affinities of our DCN1 inhibitors. A novel FAM labeled fluorescent probe compound (46) was designed and synthesized based on one of our potent small molecule DCN1 inhibitors. Equilibrium dissociation constants (Kd) values of 46 to both DCN1 and DCN2 proteins were determined from protein saturation experiments by monitoring the total FP values of mixtures composed with the fluorescent probe at a fixed concentration and proteins with increasing concentrations up to full saturation. Serial dilutions of proteins were mixed with 46 to a final volume of 200 μl in the assay buffer (100 mM phosphate buffer, pH=6.5, with 0.02% Tween-20 and 2% DMSO). Final probe concentration was 5 nM for both assays. Plates were incubated at room temperature for 30 minutes with gentle shaking to assure equilibrium. FP values in millipolarization units (mP) were measured using the Infinite M-1000 plate reader (Tecan U.S., Research Triangle Park, N.C.) in Microfluor 1 96-well, black, round-bottom plates (Thermo Scientific, Waltham, Mass.) at an excitation wavelength of 485 nm and an emission wavelength of 530 nm. Kd values of 46 were calculated by fitting the sigmoidal dose-dependent FP increases as a function of protein concentrations using Graphpad Prism 6.0 software (Graphpad Software, San Diego, Calif.).
Human DCN1 (residues 58-259) were cloned into a pDEST17 plasmid containing an N-terminal His6 tag. DCN2 (residues 62-259), DCN3 (residues 86-304), DCN4 (residues 102-292) and DCN5 (residues 47-237) were cloned into an N-terminal His6-TEV expression vector. Pure proteins were derived from the same expression and purification protocols. Plasmids were transformed into Rosetta2 cells, the cells were grown in Terrific Broth at 37° C. to an O.D.600>1.0 and induced with 0.4 mM Isopropyl β-D-1-thiogalactopyranoside overnight at 20° C. The pelleted cells were resuspended in lysis buffer containing 25 mM Tris-HCl, pH 7.5, 200 mM NaCl and protease inhibitors, sonicated and centrifuged at 34,000×g for 45 minutes to remove debris. Cleared lysate was incubated with Ni-NTA resin (Qiagen) prewashed with lysis buffer, for 1 hr at 4° C. The matrix was loaded into a column then washed with 25 mM Tris-HCl, pH 7.5, 200 mM NaCl and 10 mM imidazole. Protein was eluted with 25 mM Tris-HCl, pH 7.5, 200 mM NaCl and 300 mM imidazole, concentrated and applied to a Superdex 75 (GE Healthcare) column pre-equilibrated with 25 mM Tris pH 7.5, 200 mM NaCl and 1 mM DTT. For DCN2-5, the N-terminal His6 tag was removed prior to gel filtration. Tag removal was achieved through incubation with TEV protease during overnight dialysis against 25 mM Tris pH 7.5, 200 mM NaCl and 1 mM DTT and a second Ni-NTA column. DCN2-5 proteins were stored at −80° C. in 1 mg/mL fractions containing 5% glycerol. The uncleaved DCN1 protein was stored at −80° C. without glycerol.

Sequence of DCN1 (Q96GG9 58-259): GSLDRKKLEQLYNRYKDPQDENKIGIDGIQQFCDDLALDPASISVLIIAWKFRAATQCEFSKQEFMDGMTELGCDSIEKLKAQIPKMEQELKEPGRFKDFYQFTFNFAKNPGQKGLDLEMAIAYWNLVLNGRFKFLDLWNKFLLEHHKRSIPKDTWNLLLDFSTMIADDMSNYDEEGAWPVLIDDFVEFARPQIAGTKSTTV

| Structure (SMILES) | IC50 [nM] |
| --- | --- |
| C=CC(=O)NC[C@H](Cc1ccccc1)NC(=O)[C@H](Cc1nc2ccc(Cl)cc2s1)NC(=O)CC [Example 1, N—((S)-2-((S)-3-(6-chlorobenzo[d]thiazol-2-yl)-2-propionamidopropanamido)-3-phenylpropyl)acrylamide] | 205 |
| CCC(=O)N[C@@H](Cc1nc2ccc(Cl)cc2s1)C(=O)N[C@H](CNC(=O)/C=C/CN(C)C)Cc1ccccc1 [Example 2, (E)-N—((S)-2-((S)-3-(6-chlorobenzo[d]thiazol-2-yl)-2-propionamidopropanamido)-3-phenylpropyl)-4-(dimethylamino)but-2-enamide] | 153 |
| C=C(CN1CCOCC1)C(=O)NC[C@H](Cc1ccccc1)NC(=O)[C@H](Cc1nc2ccc(Cl)cc2s1)NC(=O)CC [Example 3, N—((S)-2-((S)-3-(6-chlorobenzo[d]thiazol-2-yl)-2-propionamidopropanamido)-3-phenylpropyl)-2-(morpholinomethyl)acrylamide] | 156 |
| C=C(CN1CCOCC1)C(=O)NC[C@H](CC1CCCCC1)NC(=O)[C@H](Cc1nc2ccc(Cl)cc2s1)NC(=O)CC [Example 5, N—((S)-2-((S)-3-(6-chlorobenzo[d]thiazol-2-yl)-2-propionamidopropanamido)-3-cyclohexylpropyl)-2-(morpholinomethyl)acrylamide] | 80.7 |
| C=C(CN1CCOCC1)C(=O)NC[C@@H](NC(=O)[C@H](Cc1nc2ccc(Cl)cc2s1)NC(=O)CC)C1CCCC1 [Example 6, N—((S)-2-((S)-3-(6-chlorobenzo[d]thiazol-2-yl)-2-propionamidopropanamido)-2-cyclopentylethyl)-2-(morpholinomethyl)acrylamide] | 135 |
| C=C(CN1CCOCC1)C(=O)NC[C@H](Cc1ccccc1)NC(=O)[C@H](Cc1nc2ccc(CC)cc2s1)NC(=O)CC [Example 8, N—((S)-2-((S)-3-(6-ethylbenzo[d]thiazol-2-yl)-2-propionamidopropanamido)-3-phenylpropyl)-2-(morpholinomethyl)acrylamide] | 99.8 |
| CCC(=O)N[C@@H](Cc1nc2ccc(Cl)cc2s1)C(=O)N[C@H](CNC(=O)C1=CCCN(C)C1)Cc1ccccc1 [Example 12, N—((S)-2-((S)-3-(6-chlorobenzo[d]thiazol-2-yl)-2-propionamidopropanamido)-3-phenylpropyl)-1-methyl-1,2,5,6-tetrahydropyridine-3-carboxamide] | 292 |
| CCC(=O)N[C@@H](Cc1nc2ccc(Cl)cc2s1)C(=O)N[C@H](CNC(=O)CCl)Cc1ccccc1 [Example 20, (S)—N—((S)-1-(2-chloroacetamido)-3-phenylpropan-2-yl)-3-(6-chlorobenzo[d]thiazol-2-yl)-2-propionamidopropanamide] | 360 |
| C=C(CN1CCCCC1)C(=O)NC[C@@H](NC(=O)[C@H](Cc1nc2ccc(C(C)C)cc2s1)NC(=O)CC)C1CCCCC1 [Example 23, N—((S)-2-cyclohexyl-2-((S)-3-(6-isopropylbenzo[d]thiazol-2-yl)-2-propionamidopropanamido)ethyl)-2-(piperidin-1-ylmethyl)acrylamide] | < 150 |
| C=C(Cn1ccnc1)C(=O)NC[C@@H](NC(=O)[C@H](Cc1nc2ccc(C(C)C)cc2s1)NC(=O)CC)C1CCCCC1 [Example 24, 2-((1H-imidazol-1-yl)methyl)-N—((S)-2-cyclohexyl-2-((S)-3-(6-isopropylbenzo[d]thiazol-2-yl)-2-propionamidopropanamido)ethyl)acrylamide] | < 150 |
| C=C(CN1CCC1)C(=O)NC[C@@H](NC(=O)[C@H](Cc1nc2ccc(C(C)C)cc2s1)NC(=O)CC)C1CCCCC1 [Example 25, 2-(azetidin-1-ylmethyl)-N—((S)-2-cyclohexyl-2-((S)-3-(6-isopropylbenzo[d]thiazol-2-yl)-2-propionamidopropanamido)ethyl)acrylamide] | < 150 |
| C=C(CN1CC(F)(F)C1)C(=O)NC[C@@H](NC(=O)[C@H](Cc1nc2ccc(C(C)C)cc2s1)NC(=O)CC)C1CCCCC1 [Example 26, N—((S)-2-cyclohexyl-2-((S)-3-(6-isopropylbenzo[d]thiazol-2-yl)-2-propionamidopropanamido)ethyl)-2-((3,3-difluoroazetidin-1-yl)methyl)acrylamide] | < 150 |

More lines, now with the values ahead:

| IC50 [nM] | Structure (SMILES) |
| --- | --- |
| < 150 | C=C(CN1CCN(C)CC1)C(=O)NC[C@@H](NC(=O)[C@H](Cc1nc2ccc(C(C)C)cc2s1)NC(=O)CC)C1CCCCC1 [Example 27, N—((S)-2-cyclohexyl-2-((S)-3-(6-isopropylbenzo[d]thiazol-2-yl)-2-propionamidopropanamido)ethyl)-2-((4-methylpiperazin-1-yl)methyl)acrylamide] |
| < 150 | C=C(CN1CCS(=O)(=O)CC1)C(=O)NC[C@@H](NC(=O)[C@H](Cc1nc2ccc(C(C)C)cc2s1)NC(=O)CC)C1CCCCC1 [Example 28, N—((S)-2-cyclohexyl-2-((S)-3-(6-isopropylbenzo[d]thiazol-2-yl)-2-propionamidopropanamido)ethyl)-2-((1,1-dioxidothiomorpholino)methyl)acrylamide] |
| < 150 | C=C(CN1CCN(CCO)CC1)C(=O)NC[C@@H](NC(=O)[C@H](Cc1nc2ccc(C(C)C)cc2s1)NC(=O)CC)C1CCCCC1 [Example 29, N—((S)-2-cyclohexyl-2-((S)-3-(6-isopropylbenzo[d]thiazol-2-yl)-2-propionamidopropanamido)ethyl)-2-((4-(2-hydroxyethyl)piperazin-1-yl)methyl)acrylamide] |
| < 150 | C=C(CN1CCC(F)(F)CC1)C(=O)NC[C@@H](NC(=O)[C@H](Cc1nc2ccc(C(C)C)cc2s1)NC(=O)CC)C1CCCCC1 [Example 30, N—((S)-2-cyclohexyl-2-((S)-3-(6-isopropylbenzo[d]thiazol-2-yl)-2-propionamidopropanamido)ethyl)-2-((4,4-difluoropiperidin-1-yl)methyl)acrylamide] |
| < 150 | C=CC(=O)NC[C@H](Cc1ccncc1)NC(=O)[C@H](Cc1nc2ccc(C(C)C)cc2s1)NC(=O)CC [Example 31, N—((S)-2-((S)-3-(6-isopropylbenzo[d]thiazol-2-yl)-2-propionamidopropanamido)-3-(pyridin-4-yl)propyl)acrylamide] |
| < 150 | C=CC(=O)NC[C@H](Cc1cccnc1)NC(=O)[C@H](Cc1nc2ccc(C(C)C)cc2s1)NC(=O)CC [Example 32, N—((S)-2-((S)-3-(6-isopropylbenzo[d]thiazol-2-yl)-2-propionamidopropanamido)-3-(pyridin-3-yl)propyl)acrylamide] |
| < 150 | C=CS(=O)(=O)NC[C@H](Cc1cccnc1)NC(=O)[C@H](Cc1nc2ccc(C(C)C)cc2s1)NC(=O)CC [Example 33, (S)-3-(6-isopropylbenzo[d]thiazol-2-yl)-2-propionamido-N—((S)-1-(pyridin-3-yl)-3-(vinylsulfonamido)propan-2-yl)propanamide] |
| < 150 | C=C(CN1CCOCC1)C(=O)NC[C@H](Cc1cccnc1)NC(=O)[C@H](Cc1nc2ccc(C(C)C)cc2s1)NC(=O)CC [Example 34, N—((S)-2-((S)-3-(6-isopropylbenzo[d]thiazol-2-yl)-2-propionamidopropanamido)-3-(pyridin-3-yl)propyl)-2-(morpholinomethyl)acrylamide] |
| < 300 | C=C(CN1CCOCC1)C(=O)NC[C@H](Cc1ccccc1)NC(=O)[C@H](Cc1cn2cc(Cl)ccc2n1)NC(=O)CC [Example 35, N—((S)-2-((S)-3-(6-chloroimidazo[1,2-a]pyridin-2-yl)-2-propionamidopropanamido)-3-phenylpropyl)-2-(morpholinomethyl)acrylamide] |
| < 150 | C=C(CN1CCOCC1)C(=O)NC[C@H](Cc1ccc(F)cc1)NC(=O)[C@H](Cc1nc2ccc(C(C)C)cc2s1)NC(=O)CC [Example 36, N—((S)-3-(4-fluorophenyl)-2-((S)-3-(6-isopropylbenzo[d]thiazol-2-yl)-2-propionamidopropanamido)propyl)-2-(morpholinomethyl)acrylamide] |
| < 200 | C=CC(=O)NC[C@@H](NC(=O)[C@H](Cc1nc2ccc(C(C)C)cc2s1)NC(=O)CC)C1CCCCC1 [Example 37, N—((S)-2-cyclohexyl-2-((S)-3-(6-isopropylbenzo[d]thiazol-2-yl)-2-propionamidopropanamido)ethyl)acrylamide] |
